From ChEMBL document CHEMBL5550098, “Discovery of N-benzylbenzamide-based allosteric inhibitors of Aurora kinase A” (Bioorg Med Chem, 2024)
pIC50: −log10 of the molar value. ≈ marks a conversion by molar mass, not a printed value. Values belong to the compound of their own block, whether it stands above or below them. Calls of active or inactive are those of the source. No cut-off for these calls is given here.

Tests used:
Aurora kinase A = molecular target: T1, Aurora kinase A (Homo sapiens, UniProt O14965); test: Allosteric inhibition of AurkA (unknown origin)
T1 sequence (O14965 whole entry): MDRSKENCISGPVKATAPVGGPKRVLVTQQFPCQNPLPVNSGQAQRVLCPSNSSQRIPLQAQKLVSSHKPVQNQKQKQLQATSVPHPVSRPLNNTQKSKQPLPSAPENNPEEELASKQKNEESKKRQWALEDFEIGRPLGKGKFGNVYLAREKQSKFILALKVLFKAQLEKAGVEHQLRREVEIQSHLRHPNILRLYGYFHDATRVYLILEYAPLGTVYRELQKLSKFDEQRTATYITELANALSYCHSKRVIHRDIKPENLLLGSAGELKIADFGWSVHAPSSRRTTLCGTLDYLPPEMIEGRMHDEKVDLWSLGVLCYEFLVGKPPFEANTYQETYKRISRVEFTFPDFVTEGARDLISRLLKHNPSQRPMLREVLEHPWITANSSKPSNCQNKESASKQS

HT-29 [1] = test: Downregulation of phospho-histone H3 level at Ser10 residue in human HT-29 cells at 20 uM measured at 12 to 24 hrs by Western blot analysis; assay type: functional, cell-based; conditions: time 12-24 hrs
HCT-116 [2] = test: Downregulation of phospho-histone H3 level at Ser10 residue in human HCT-116 cells at 20 uM measured at 48 hrs by Western blot analysis; assay type: functional, cell-based
NCI-H358 = test: Induction of cell cycle arrest in human NCI-H358 cells assessed as G1/S phase transition at 100 uM measured after 48 hrs by RNase/PI staining based flow cytometry analysis; assay type: functional
HeLa [3] = test: Inhibition of DNA replication during G1 to S transition in nocodazole synchronized human HeLa cells assessed as reduction in Edu content in new synthesized DNA by measuring Edu positive cells at 100 uM measured after 9 hrs by Edu incorporation based flow cytometry analysis (reference value: 16.8%); assay type: functional; parameters: scale not given: the % may be the effect or the level left
PANC-1 = test: Induction of cell cycle arrest in human PANC-1 cells at 100 uM measured after 48 hrs by RNase/PI staining based flow cytometry analysis; assay type: functional
HCT-116 [4] = test: Induction of cell cycle arrest at G2/M phase in human HCT-116 cells at 100 uM measured after 48 hrs by RNase/PI staining based flow cytometry analysis; assay type: functional
HT-29 [5] = test: Induction of cell cycle arrest at G2/M phase in human HT-29 cells at 100 uM measured after 48 hrs by RNase/PI staining based flow cytometry analysis; assay type: functional
HeLa [6] = test: Inhibition of DNA replication during G1 to S transition in nocodazole synchronized human HeLa cells assessed as reduction in Edu content in new synthesized DNA by measuring Edu positive cells at 100 uM measured after 8 hrs by Edu incorporation based flow cytometry analysis (reference value: 19.7%); assay type: functional; parameters: scale not given: the % may be the effect or the level left
A549 = test: Induction of cell cycle arrest in human A549 cells assessed as G1/S phase transition at 100 uM measured after 48 hrs by RNase/PI staining based flow cytometry analysis; assay type: functional
[7] = Permeability of compound at 5 uM by PAMPA assay; assay type: ADME; conditions: read-out: permeability
HT-29 [8] = test: Downregulation of phospho-histone H3 level at Ser10 residue in human HT-29 cells at 20 uM measured at 48 hrs by Western blot analysis; assay type: functional, cell-based
HeLa [9] = test: Antiproliferative activity against human HeLa cells assessed as inhibition of cell growth incubated for 72 hrs in absence of PHA-767491 by celltiter-glo assay; assay type: functional
HeLa [10] = test: Induction of cell cycle arrest in human HeLa cells at 100 uM measured after 48 hrs by RNase/PI staining based flow cytometry analysis; assay type: functional
[11] = Aqueous solubility of compound at pH 7.4; assay type: physicochemical
HeLa [12] = test: cells; conditions: Homo sapiens, 72 h
HCT-116 [13] = test: Downregulation of phospho-histone H3 level at Ser10 residue in human HCT-116 cells at 20 uM measured at 12 to 24 hrs by Western blot analysis; assay type: functional, cell-based; conditions: time 12-24 hrs
HeLa [14] = test: Inhibition of DNA replication during G1 to S transition in nocodazole synchronized human HeLa cells assessed as reduction in Edu content in new synthesized DNA by measuring Edu positive cells at 1 uM measured after 8 hrs by Edu incorporation based flow cytometry analysis (reference value: 19.7%); assay type: functional, cell-based; parameters: scale not given: the % may be the effect or the level left
HeLa [15] = test: Inhibition of DNA replication during G1 to S transition in nocodazole synchronized human HeLa cells assessed as reduction in Edu content in new synthesized DNA by measuring Edu positive cells at 1 uM measured after 9 hrs by Edu incorporation based flow cytometry analysis (reference value: 16.8%); assay type: functional, cell-based; parameters: scale not given: the % may be the effect or the level left

Structure (SMILES): CC1=C(C(=O)Nc2ccc(F)cc2F)[C@H](c2cccnc2)C2=C(C[C@@H](c3ccccc3)CC2=O)N1
pIC50 (Aurora kinase A): > 4.70

Structure (SMILES): O=C(NCc1ccc2c(c1)OCO2)c1cccc(-c2ccncc2)c1
Activity (HT-29 [1]): inactive
Activity (HCT-116 [2]): Active
Activity (NCI-H358): Active
Activity (HeLa [3]): 1.6%
Activity (PANC-1): inactive
Activity (HCT-116 [4]): Active
Activity (HT-29 [5]): Active
Activity (HeLa [6]): 7%
Activity (A549): Active
Papp at 5 µM [7]: 65.5 ×10⁻⁶ cm/s
Activity (HT-29 [8]): Active
GI50 (HeLa [9]): 71.7 µM
Activity (HeLa [10]): inactive
solubility [11]: 161 µM (≈ 53.5 µg/mL)
GI50 (HeLa [12]): 14 µM
Activity (HCT-116 [13]): inactive

Structure (SMILES): Cc1cc(Nc2cc(N3CCN(C)CC3)nc(Sc3ccc(NC(=O)C4CC4)cc3)n2)n[nH]1
Activity (HeLa [14]): 21.7%
Activity (HeLa [15]): 22.1%

Now from value to compound:

pIC50 (Aurora kinase A): > 4.70
Structure (SMILES): COc1ccc(CNC(=O)C(C)Oc2ccc3c(c2)c2ccnc4c5ccccc5c(=O)n3c24)cc1 (stereo unspecified)

pIC50 (Aurora kinase A): > 4.70
Structure (SMILES): CC(Oc1ccc2c(c1)c1ccnc3c4ccccc4c(=O)n2c13)C(=O)NCc1ccc2c(c1)OCO2 (stereo unspecified)
